In patent publication US7563805B2, “Tri-, tetra-substituted-3-aminopyrrolidine derivative” (Daiichi Pharmaceutical Co., Ltd., priority 2005, dated 2009):
≈ marks a conversion by molar mass, not a printed value. Like-named read-outs stand apart in the source and are kept apart here.

Legend:
hERG K+ channel = hERG K+ channel (Homo sapiens, UniProt Q12809); assay: hERG-K^+ channel blocking effect
[1] = female, cynomolgus monkey, in vivo
[2] = rat, in vivo, po
Description: (§1) The Comparative compound was also evaluated by the same procedure.
(§2) The test substance was orally administered to fasted rats (7 week old male Crj:CD IGS rats purchased from Charles River Laboratories Japan, Inc.) at a dose of 5 mg/kg.
(§3) Animals of absorption test group (3 animals per group) were sacrificed by bleeding under etherization at 0.25, 0.5, 1, 2, 4, and 8 hours after the drug administration, and blood, lever, kidney, and lung were collected. The blood was centrifuged (3000 rpm×15 minutes, 4° C.) after coagulation to collect serum. Tissue was homogenized after adding 3 to 5 mL of 0.1 mol/l phosphate buffer (pH 7.0), and the supernatant was collected from the homogenate (3000 rpm×15 minutes, 4° C.).
(§4) Animals of excretion test group (3 animals per group) were placed in a metabolic cage, and the urine of 0 to 4 hours and 4 to 24 hours after the administration was collected in a water-cooled container. Simultaneously with the collection of the urine, the cage was also washed with about 15 mL of 0.1 mol/l phosphate buffer (pH 7.0) to collect the urine attached to the cage. For evaluation of conjugates such as glucuronide, the collected sample was also aliquoted and hydrolyzed with an equal amount of 1 mol/l aqueous solution of sodium hydroxide, and the hydrolysate was neutralized with 0.5 mol/l hydrochloric acid and measured for its concentration. The concentration was measured by LC-MS/MS method.
(§5) Pharmacokinetic parameters of the each drug in rat were calculated by from the time course of the average concentration by using pharmacokinetic analysis software PSAG-CP (AS Medica Inc.) in a manner not dependent on the model animal.

in vivo [3] = conditions: female, cynomolgus monkey, po, 5 mg/kg
P. aeruginosa, 32121 = assay: antibacterial activity (MIC), standard method of Japanese Society of Chemotherapy; conditions: Pseudomonas aeruginosa
[4] = system: Mycobacterium tuberculosis (quinolone sensitive); assay: anti-Mycobacterium tuberculosis (quinolone sensitive) activity, MIC; format: cell-based
in vivo [5] = conditions: male, Crj:CD IGS, rat, po, 5 mg/kg
Description: as §1, §2, §3, §4, §5
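For Excretion rate in urine, times higher than Comparative compound 1 in this document: fasted 7-week-old rats, three per group, tissue sampled up to 8 h post-dose and urine collected over 0–24 h, with conjugates measured after alkaline hydrolysis, concentrations by LC-MS/MS.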
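For Tissue AUC0-8 h, Kidney in this document: fasted 7-week-old rats, three per group, tissue sampled up to 8 h post-dose and urine collected over 0–24 h, with conjugates measured after alkaline hydrolysis, concentrations by LC-MS/MS.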
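For Tissue AUC0-8 h, Liver in this document: fasted 7-week-old rats, three per group, tissue sampled up to 8 h post-dose and urine collected over 0–24 h, with conjugates measured after alkaline hydrolysis, concentrations by LC-MS/MS.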
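For serum concentration and tissue concentration, times higher than Comparative compound 1 in this document: fasted 7-week-old rats, three per group, tissue sampled up to 8 h post-dose and urine collected over 0–24 h, with conjugates measured after alkaline hydrolysis, concentrations by LC-MS/MS.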

Sequence of hERG K+ channel (Q12809 whole entry): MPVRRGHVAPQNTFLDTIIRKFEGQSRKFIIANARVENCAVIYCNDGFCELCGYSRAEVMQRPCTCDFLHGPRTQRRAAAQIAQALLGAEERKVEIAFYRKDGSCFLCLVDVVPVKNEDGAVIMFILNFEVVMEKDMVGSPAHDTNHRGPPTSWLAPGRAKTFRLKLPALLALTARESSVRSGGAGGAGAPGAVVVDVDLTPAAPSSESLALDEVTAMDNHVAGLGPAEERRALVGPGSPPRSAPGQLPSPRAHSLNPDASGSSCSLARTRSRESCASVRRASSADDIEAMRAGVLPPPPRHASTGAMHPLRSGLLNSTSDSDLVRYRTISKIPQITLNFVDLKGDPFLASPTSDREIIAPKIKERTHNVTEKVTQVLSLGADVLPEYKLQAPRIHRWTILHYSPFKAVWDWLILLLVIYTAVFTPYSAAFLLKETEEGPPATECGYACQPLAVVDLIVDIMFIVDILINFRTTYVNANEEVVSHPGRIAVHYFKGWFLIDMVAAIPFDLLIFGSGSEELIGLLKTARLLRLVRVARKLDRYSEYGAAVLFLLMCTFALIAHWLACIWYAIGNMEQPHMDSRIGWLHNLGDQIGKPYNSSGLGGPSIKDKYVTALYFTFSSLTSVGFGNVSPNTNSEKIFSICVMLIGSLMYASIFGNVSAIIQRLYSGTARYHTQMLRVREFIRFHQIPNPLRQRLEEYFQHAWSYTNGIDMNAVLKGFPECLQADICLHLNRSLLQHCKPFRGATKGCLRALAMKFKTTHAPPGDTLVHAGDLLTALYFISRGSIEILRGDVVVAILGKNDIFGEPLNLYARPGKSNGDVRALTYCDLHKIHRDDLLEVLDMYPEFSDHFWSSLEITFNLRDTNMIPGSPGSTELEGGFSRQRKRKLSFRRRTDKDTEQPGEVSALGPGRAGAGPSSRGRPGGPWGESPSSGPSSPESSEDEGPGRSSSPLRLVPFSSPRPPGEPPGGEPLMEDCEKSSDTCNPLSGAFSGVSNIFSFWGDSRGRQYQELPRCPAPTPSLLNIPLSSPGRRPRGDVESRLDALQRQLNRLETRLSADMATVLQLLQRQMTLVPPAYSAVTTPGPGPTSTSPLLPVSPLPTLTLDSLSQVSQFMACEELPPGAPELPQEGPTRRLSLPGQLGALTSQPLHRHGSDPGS

## COc1c(N2CC(C)(N)C3(CC3)C2)c(F)cc2c(=O)c(C(=O)O)cn([C@@H]3C[C@@H]3F)c12 (stereo partly drawn) [Example 9, 7-(7-Amino-7-methyl-5-azaspiro[2.4]heptan-5-yl)-6-fluoro-1-[(1R,2S)-2-fluorocyclopropyl]-8-methoxy-1,4-dihydro-4-oxoquinoline-3-carboxylic acid]
hERG K+ channel
  inhibition at 30 µM: 7.4 ± 4.5%
  inhibition at 100 µM: 10.2 ± 5.4%
  inhibition at 300 µM: 20.1 ± 7.4%
[1]
  blood penetration, times higher than Comparative compound 1: about 2.5 times
  urine excretion rate, times higher than Comparative compound 1: more than 2 times
[1]; 5 mg/kg
  Recovery (%) in urine in relation to the amount administered, Recovery (%) including conjugate: 59.5%
[2]; male, Crj:CD IGS
  Excretion rate in urine, times higher than Comparative compound 1: about 1.5 times
  serum concentration and tissue concentration, times higher than Comparative compound 1: about 2 times
[2]; male, Crj:CD IGS, 5 mg/kg
  Recovery (%) in urine in relation to the amount administered, Recovery (%) including conjugate: 32.0%
  Tissue AUC0-8 h, Kidney: 27800 ng·h/mL
  Tissue AUC0-8 h, Liver: 32100 ng·h/mL
  Tissue AUC0-8 h, Lung: 13700 ng·h/mL
  Tissue Cmax, Kidney: 9.88 µg/g
  Tissue Cmax, Liver: 13.7 µg/g
  Tissue Cmax, Lung: 3.86 µg/g
[2]
  AUC value, times higher than Comparative compound 1: 1.5-2 times
In vivo [3]
  AUC(0-t): 16900 ng·h/mL
  Cmax: 2180 ng/mL
  half-life: 4.8 h
P. aeruginosa, 32121
  MIC: 0.2 µg/mL (≈ 0.477 µM)
[4]; strain 1 (QR-3)
  MIC: 0.125 µg/mL (≈ 0.298 µM)
[4]; strain 2 (QR-6)
  MIC: 0.5 µg/mL (≈ 1.19 µM)
[4]; strain 3 (QR-1)
  MIC: 0.25 µg/mL (≈ 0.596 µM)
[4]; strain 4 (QR-9)
  MIC: 0.25 µg/mL (≈ 0.596 µM)
[4]; strain MDR 1
  MIC: 0.125 µg/mL (≈ 0.298 µM)
[4]; strain MDR 3
  MIC: 0.125 µg/mL (≈ 0.298 µM)
[4]; strain MDR 4
  MIC: 0.25 µg/mL (≈ 0.596 µM)
[4]; strain MDR 5
  MIC: 0.5 µg/mL (≈ 1.19 µM)
[4]; strain MDR 7
  MIC: 0.125 µg/mL (≈ 0.298 µM)
[4]; strain MDR 9
  MIC: 0.125 µg/mL (≈ 0.298 µM)
[4]; strain MDR 12
  MIC: 0.125 µg/mL (≈ 0.298 µM)
[4]; strain S 1
  MIC: 1 µg/mL (≈ 2.38 µM)
In vivo [5]
  AUC(0-t): 3080 ng·h/mL
  Cmax: 1220 ng/mL
